Experimental data: patent publication US6387881B1, “Inhibitors and substrates of thrombin” (priority 1992, dated 2002)
Values joined by “and” are separate entries in the source; they are usually repeats but may differ in a detail not shown here. Identical values can stand only once.

Target: human α-thrombin (Homo sapiens, UniProt P00734)
Experiment: biochemical
Format: biochemical
Details: human α-thrombin, S-2238, 37° C.; read-out: Ki
Method: The inhibition of human α-thrombin was determined by the inhibition of the enzyme catalyzed hydrolysis of three different concentrations of the chromogenic substrate S-2238.
200 μl of sample or buffer and 50 μl of S-2238 were incubated at 37° C. for 1 min and 50 μl of human α-thrombin (0.25 NIHu/ml) was added. The initial rate of inhibited and uninhibited reactions were recorded at 405 nm. The increase in optical density was plotted according to the method of Lineweaver and Burke. The Km and apparent Km were determined and Ki was calculated using the relationship: [formula]

Row | Structure (SMILES) | Ki [µM]
1 | NC(C(=O)N1CCCC1C(=O)NC(c1ccccc1)P(=O)(O)O)C(c1ccccc1)c1ccccc1 [Compound 16, D,L-Dpa-Pro-Pgl^P(OH)2] | 0.223
2 | CC(C)(C)OC(=O)NC(C(=O)N1CCCC1C(=O)NC(c1ccccc1)P(=O)(O)O)C(c1ccccc1)c1ccccc1 [Compound 15, Boc-D,L-Dpa-Pro-Pgl^P(OH)2] | 59
3 | CCCCCC(NC(=O)[C@@H]1CCCN1C(=O)[C@H](N)C(c1ccccc1)c1ccccc1)P(=O)(Oc1ccccc1)Oc1ccccc1 (stereo partly drawn) [Compound 23, D-Dpa-Pro-Pgl^P(OPh)2] | 0.48
4 | CCCCCC(NC(=O)[C@@H]1CCCN1C(=O)[C@H](N)C(c1ccccc1)c1ccccc1)P(=O)(O)O (stereo partly drawn) [Compound 18, D-Dpa-Pro-Pgl^P(OH)2] | 15.1
5 | O=C(NC(C(=O)N1CCCC1C(=O)NC(c1ccccc1)P(=O)(Oc1ccccc1)Oc1ccccc1)C(c1ccccc1)c1ccccc1)OCc1ccccc1 [Compound 17, Z-D-Dpa-Pro-Pgl^P(OPh)2] | 8.46

Same assay, conditions: read-out: Ki

Row | Structure (SMILES) | Ki [µM]
6 | N=C(N)Nc1ccc(CC(NC(=O)[C@@H]2CCCN2C(=O)[C@H](N)Cc2ccccc2)C(=O)CCC(=O)N2CCCCC2)cc1 (stereo partly drawn) [D-Phe-Pro-Gpa-k--Gly-Pip, D-Phe-Pro-Gpa--k--Gly-Pip] | 1.3
7 | CCCCCC(NC(=O)[C@@H]1CCCN1C(=O)[C@H](N)Cc1ccccc1)P(=O)(O)O (stereo partly drawn) [Compound 21, D-Phe-Pro-Pgl^P(OH)2] | > 98
8 | N=C(N)NCCCC(NC(=O)C1CCCN1C(=O)C(N)Cc1ccc2ccccc2c1)C(=O)CCC(=O)N1CCCCC1 (mixture of isomers) [Compound 14, D,L-β-Nal-Pro-Arg--k--Gly-Pip] | 11.6

Target: T1, bovine thrombin in citrated normal human plasma (Bos taurus, UniProt P00735)
T1 construct: freshly prepared bovine thrombin (5 NIHu/ml saline)
Experiment: Plasma thrombin time (TT), in vitro
Format: biochemical
Details: inhibitor concentration that caused a doubling of the thrombin time
Method: (§1) A volume of 150 μl of citrated normal human plasma and 20 μl of buffer or sample were warmed at 37° C. for 1 min. Coagulation was started by adding 150 ul of freshly prepared bovine thrombin (5 NIHu/ml saline) and the coagulation time was recorded on a coagulometer.
(§2) A phosphate buffer, pH 7.8, containing 0.1% bovine serum albumine and 0.02% sodium azide was used. The samples were dissolved in DMSO and diluted with the buffer. When no inhibitor was used DMSO was added to the buffer to the same concentration as that used in the samples. The inhibitor concentrations were plotted against the thrombin times in a semilogarithmic graph from which the inhibitor concentration that caused a doubling (40 sec) of the thrombin time was determined.

Row | Structure (SMILES) | TT [µM]
9 | N=C(N)NCCCC(NC(=O)C1CCCN1C(=O)C(N)C1c2ccccc2-c2ccccc21)C(=O)CCC(=O)N1CCCCC1 [Compound 8, D-Fgl-Pro-Arg--k--Gly-Pip] | 50.0
10 | N=C(N)Nc1ccc(CC(NC(=O)[C@@H]2CCCN2C(=O)[C@H](N)Cc2ccccc2)C(=O)CCC(=O)N2CCCCC2)cc1 (stereo partly drawn) [D-Phe-Pro-Gpa-k--Gly-Pip, D-Phe-Pro-Gpa--k--Gly-Pip] | 4.9
11 | N=C(N)NCCCC(NC(=O)C1CCCN1C(=O)C(N)Cc1ccc2ccccc2c1)C(=O)CCC(=O)N1CCCCC1 (mixture of isomers) [Compound 14, D,L-β-Nal-Pro-Arg--k--Gly-Pip] | 90.0

System: bovine thrombin in plasma samples
Experiment: Ex-vivo TT
Format: in vivo, New Zealand white rabbits
Design: key: thrombin (coagulation) time in seconds
Details: time 0 min, 1 mg/kg i.v. bolus, rabbit
Method: as §1, §2
(§3) Data was obtained as for in-vitro tests, but using plasma samples obtained at 0, 1, 10, 30 and 60 minutes after dosing of 1 mg/kg, i.v. bolus injection in a marginal ear vein in New Zealand white rabbits, which were anaesthetized from a canula in the carotid artery. [drawing 18]

Row | Structure (SMILES) | EX-VIVO T.T.
12 | CCCCCC(NC(=O)[C@@H]1CCCN1C(=O)[C@@H](Cc1ccccc1)NC(=O)OCc1ccccc1)B1OC(C)(C)C(C)(C)O1 (stereo partly drawn) [Compound 11, Z-D-Phe-Pro-BoroPgl-OPinac] | 30 and 24.5 and 26

Same assay, conditions: time 1 min, 1 mg/kg i.v. bolus, rabbit

Row | Structure (SMILES) | EX-VIVO T.T.
13 | CCCCCC(NC(=O)[C@@H]1CCCN1C(=O)[C@@H](Cc1ccccc1)NC(=O)OCc1ccccc1)B1OC(C)(C)C(C)(C)O1 (stereo partly drawn) [Compound 11, Z-D-Phe-Pro-BoroPgl-OPinac] | >300 and >200

Same assay, conditions: time 10 min, 1 mg/kg i.v. bolus, rabbit

Row | Structure (SMILES) | EX-VIVO T.T.
14 | CCCCCC(NC(=O)[C@@H]1CCCN1C(=O)[C@@H](Cc1ccccc1)NC(=O)OCc1ccccc1)B1OC(C)(C)C(C)(C)O1 (stereo partly drawn) [Compound 11, Z-D-Phe-Pro-BoroPgl-OPinac] | >300 and >200

Target: not listed separately
Experiment: IC50 with and without incubation (enzyme not given)
Format: biochemical
Details: no incubation; read-out: IC50 No Incubations

Row | Structure (SMILES) | IC50 [µM]
15 | NC(C(=O)N1CCCC1C(=O)NC(c1ccccc1)P(=O)(O)O)C(c1ccccc1)c1ccccc1 [Compound 16, D,L-Dpa-Pro-Pgl^P(OH)2] | 5.16
16 | CC(C)(C)OC(=O)NC(C(=O)N1CCCC1C(=O)NC(c1ccccc1)P(=O)(O)O)C(c1ccccc1)c1ccccc1 [Compound 15, Boc-D,L-Dpa-Pro-Pgl^P(OH)2] | 5.28
17 | CCCCCC(NC(=O)[C@@H]1CCCN1C(=O)[C@H](N)C(c1ccccc1)c1ccccc1)P(=O)(Oc1ccccc1)Oc1ccccc1 (stereo partly drawn) [Compound 23, D-Dpa-Pro-Pgl^P(OPh)2] | 0.187
18 | CCCCCC(NC(=O)[C@@H]1CCCN1C(=O)[C@H](N)Cc1ccccc1)P(=O)(O)O (stereo partly drawn) [Compound 21, D-Phe-Pro-Pgl^P(OH)2] | > 137
19 | CCCCCC(NC(=O)[C@@H]1CCCN1C(=O)[C@H](N)C(c1ccccc1)c1ccccc1)P(=O)(O)O (stereo partly drawn) [Compound 18, D-Dpa-Pro-Pgl^P(OH)2] | 148

Same assay, conditions: with incubation; read-out: IC50 Inc.

Row | Structure (SMILES) | IC50 [µM]
20 | NC(C(=O)N1CCCC1C(=O)NC(c1ccccc1)P(=O)(O)O)C(c1ccccc1)c1ccccc1 [Compound 16, D,L-Dpa-Pro-Pgl^P(OH)2] | 0.0817
21 | CC(C)(C)OC(=O)NC(C(=O)N1CCCC1C(=O)NC(c1ccccc1)P(=O)(O)O)C(c1ccccc1)c1ccccc1 [Compound 15, Boc-D,L-Dpa-Pro-Pgl^P(OH)2] | 0.0836
22 | CCCCCC(NC(=O)[C@@H]1CCCN1C(=O)[C@H](N)C(c1ccccc1)c1ccccc1)P(=O)(Oc1ccccc1)Oc1ccccc1 (stereo partly drawn) [Compound 23, D-Dpa-Pro-Pgl^P(OPh)2] | 0.000938
23 | CCCCCC(NC(=O)[C@@H]1CCCN1C(=O)[C@H](N)Cc1ccccc1)P(=O)(O)O (stereo partly drawn) [Compound 21, D-Phe-Pro-Pgl^P(OH)2] | 4.35
24 | CCCCCC(NC(=O)[C@@H]1CCCN1C(=O)[C@H](N)C(c1ccccc1)c1ccccc1)P(=O)(O)O (stereo partly drawn) [Compound 18, D-Dpa-Pro-Pgl^P(OH)2] | 0.751

System: plasma samples
Experiment: Ex-vivo APTT
Format: in vivo, New Zealand white rabbits
Design: unit not given here
Details: time 0 min, 1 mg/kg i.v. bolus, rabbit
Method: A volume of 150 μl of citrated (3.2%) normal human plasma was incubated at 37° C. with sample (20 μl) or buffer (20 μl, control) for 1 min. To the solution was added reconstituted “AUTOMATED APTT” (available from Organon Teknika, 0.1 ml). Each solution was activated at 37° C. for 5 min.
After activation, calcium chloride (0.1 ml, 0.025M, prewarmed at 37° C.) was added and clot detection was timed using a “semiautomated coagulometer” (Nach, Schnicter und Gross).
as §3

Row | Structure (SMILES) | EX-VIVO A.P.T.T.
25 | CCCCCC(NC(=O)[C@@H]1CCCN1C(=O)[C@@H](Cc1ccccc1)NC(=O)OCc1ccccc1)B1OC(C)(C)C(C)(C)O1 (stereo partly drawn) [Compound 11, Z-D-Phe-Pro-BoroPgl-OPinac] | 46.5 and 26.4

Same assay, conditions: time 60 min, 1 mg/kg i.v. bolus, rabbit

Row | Structure (SMILES) | EX-VIVO A.P.T.T.
26 | CCCCCC(NC(=O)[C@@H]1CCCN1C(=O)[C@@H](Cc1ccccc1)NC(=O)OCc1ccccc1)B1OC(C)(C)C(C)(C)O1 (stereo partly drawn) [Compound 11, Z-D-Phe-Pro-BoroPgl-OPinac] | 53.0 and 38.4
